Experimental data from patent US20090004194A1, “TLR AGONIST (FLAGELLIN)/CD40 AGONIST/ANTIGEN PROTEIN AND DNA CONJUGATES AND USE THEREOF FOR INDUCING SYNERGISTIC ENHANCEMENT IN IMMUNITY” (Regents of the University of Colorado, priority 2006, published 2009).
“Also recorded” adds a separate entry of the source.

Experiments:
spleen cells = test: Type 1 IFN (IFNalphabeta) induction in spleen cells in vitro; type: cell-based
Excerpt: Two forms of the recombinant protein are made; the light chain, heavy chain and HIV Gag with and without flagellin. The TLR7/8 agonist is conjugated to each other resulting in the production of proteins which stimulate CD40/TLR7/8. A proprietary TLR7/8 agonist, called 3M012 (3M Pharmaceuticals Inc, St. Paul Minn.) contains a photoconjugatable linker, which when placed under UV light, conjugates rapidly to terminal amino groups (lysines, arginines, N terminus) in the protein of interest. Conjugation to the TLR7/8 agonist is performed as described previously (Wille-Reece et al., J. Immunol. 174:7676 (2005)). Briefly, recombinant protein is placed in deep well polypropylene 96 well plates (Costar) with 50-100 microliters of 10 mg/ml 3M012 and exposed to longwave UV light for 15 minutes. Following UV exposure, the recombinant protein-TLR7/8 conjugate is washed through a 30 kd cutoff centricon concentrator to remove any free 3M012 and […] molecular weight drug conjugates. The recombinant protein-TLR7/8 conjugates are washed in PBS pH 7.5-8 and analyzed as described above for anti-CD40 and TLR5 activity (for recombinant protein containing flagellin). The amount of 3M012 conjugated to the recombinant protein is determined in vitro by type 1 IFN (IFNalphabeta) induction in spleen cells as previously described (Wille-Reece et al. (Id)).

[1] = system: antigen specific CD8+ T cells; test: Immunization of mice with ovalbumin plus TLR and CD40 agonists; antigen-specific CD8+ T cells by tetramer staining; type: in vivo

Substance | IFN alphabeta induction (spleen cells) | synergy with anti-CD40 for inducing CD8+ T cell expansion ([1]; whole ovalbumin + anti-CD40 + TLR agonist) | synergy with anti-CD40 for inducing CD8+ T cell expansion ([1]; mouse, in vivo)
flagellin | does not induce IFN alphabeta | able to synergize with anti-CD40; also recorded: effectively synergizes with anti-CD40 | –
poly IC | – | – | able to synergize with anti-CD40
